Measurements as given in patent US20210045385A1, “PYRIDAZINONE-SUBSTITUTED KETOXIMES AS HERBICIDES” (FMC Corporation, priority 2018, published 2021).

Columns and labels:
Type in all cases: in vivo
corn (Zea mays) = assay: Test C postemergence, visual plant response rating
Text: (§1) Seeds of plant species selected from barnyardgrass (Echinochloa crus-galli), kochia (Bassia scoparia), ragweed (common ragweed, Ambrosia artemisiifolia), Italian ryegrass (Lolium mutiflorum), foxtail, giant (giant foxtail, Setaria faberi), foxtail, green (green foxtail, Setaria viridis), and pigweed (Amaranthus retroflexus) were planted into a blend of loam soil and sand and treated preemergence with a directed soil spray using test chemicals formulated in anon-phytotoxic solvent mixture which included a surfactant.
(§2) At the same time, plants selected from these weed species and also wheat (Triticum aestivum), corn (Zea mays), blackgrass (Alopecurus myosuroides), and galium (catchweed bedstraw, Galium aparine) were planted in pots containing the same blend of loam soil and sand and treated with post emergence applications of test chemicals formulated in the same manner. Plants ranged in height from 2 to 10 cm and were in the one- to two-leaf stage for the postemergence treatment. Treated plants and untreated controls were maintained in a greenhouse for approximately 10 d, after which time all treated plants were compared to untreated controls and visually evaluated for injury. Plant response ratings, summarized in Table C, are based on a 0 to 100 scale where 0 is no effect and 100 is complete control. A dash (-)response means no test result.

[1] = test system: barnyardgrass (Echinochloa crus-galli); assay: Test C postemergence, visual plant response rating
Text: as §1, §2

kochia (Bassia scoparia) [2] = assay: Test C postemergence, visual plant response rating
Text: as §1, §2

[3] = test system: galium (catchweed bedstraw, Galium aparine); assay: Test C postemergence, visual plant response rating
Text: as §1, §2

[4] = test system: blackgrass (Alopecurus myosuroides); assay: Test C postemergence, visual plant response rating
Text: as §1, §2

[5] = test system: Italian ryegrass (Lolium mutiflorum); assay: Test C postemergence, visual plant response rating
Text: as §1, §2

[6] = test system: foxtail, giant (giant foxtail, Setaria faberi); assay: Test C postemergence, visual plant response rating
Text: as §1, §2

[7] = test system: ragweed (common ragweed, Ambrosia artemisiifolia); assay: Test C postemergence, visual plant response rating
Text: as §1, §2

[8] = test system: wheat (Triticum aestivum); assay: Test C postemergence, visual plant response rating
Text: as §1, §2

[9] = test system: pigweed (Amaranthus retroflexus); assay: Test C postemergence, visual plant response rating
Text: as §1, §2

[10] = test system: barnyardgrass (Echinochloa crus-galli); assay: Test C preemergence, visual plant response rating
In short: (§3)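 Compounds in a non-phytotoxic solvent with surfactant were applied as a directed soil spray preemergence or to 2–10 cm, one- to two-leaf plants postemergence, in loam–sand soil. After about 10 d in a greenhouse, injury was visually rated against untreated controls on a 0–100 scale (100 = complete control).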

kochia (Bassia scoparia) [11] = assay: Test C preemergence, visual plant response rating
In short: as §3

[12] = test system: Italian ryegrass (Lolium mutiflorum); assay: Test C preemergence, visual plant response rating
In short: as §3

[13] = test system: foxtail, giant (giant foxtail, Setaria faberi); assay: Test C preemergence, visual plant response rating
In short: as §3

[14] = test system: pigweed (Amaranthus retroflexus); assay: Test C preemergence, visual plant response rating
In short: as §3

[15] = test system: barnyardgrass (Echinochloa crus-galli); assay: Test D flooded paddy test, visual plant response rating; conditions: 250 g ai/ha, scale 0 to 100 (0 no effect, 100 complete control), 13 to 15 d
In short: (§4)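 2-leaf plants, flooded 3 cm, cpd into paddy water; greenhouse 13–15 d; visual rating vs controls, 0 = no effect, 100 = complete control; dash = no result.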

rice (Oryza sativa) = assay: as above; conditions: 250 g ai/ha, scale 0 to 100 (0 no effect, 100 complete control), 13 to 15 d
In short: as §4

[16] = test system: sedge umbrella (small-flower umbrella sedge, Cyperus difformis); assay: as above; conditions: 250 g ai/ha, scale 0 to 100 (0 no effect, 100 complete control), 13 to 15 d
In short: as §4

[17] = test system: duck salad (Heteranthera limosa); assay: as above; conditions: 250 g ai/ha, scale 0 to 100 (0 no effect, 100 complete control), 13 to 15 d
In short: as §4

[18] = Test C, postemergence, 125 g ai/ha
[19] = Test C, 31 g ai/ha, 0 is no effect, 100 is complete control
[20] = Test C, 125 g ai/ha, 0 is no effect, 100 is complete control

Row | SMILES | Corn plant response rating (0 to 100 scale) (corn (Zea mays); Postemergence, 31 g ai/ha) | Corn plant response rating (0 to 100 scale) (corn (Zea mays); [18]) | Barnyardgrass plant response rating (0 to 100 scale) ([1]; Postemergence, 31 g ai/ha) | Barnyardgrass plant response rating (0 to 100 scale) [1, 18] | Kochia plant response rating (0 to 100 scale) (kochia (Bassia scoparia) [2]; Postemergence, 31 g ai/ha) | Kochia plant response rating (0 to 100 scale) (kochia (Bassia scoparia) [2]; [18]) | Galium plant response rating (0 to 100 scale) ([3]; Postemergence, 31 g ai/ha) | Galium plant response rating (0 to 100 scale) [3, 18] | Blackgrass plant response rating (0 to 100 scale) ([4]; Postemergence, 31 g ai/ha) | Blackgrass plant response rating (0 to 100 scale) [4, 18] | Ryegrass, Italian plant response rating (0 to 100 scale) ([5]; Postemergence, 31 g ai/ha) | Ryegrass, Italian plant response rating (0 to 100 scale) [5, 18] | Foxtail, Giant plant response rating (0 to 100 scale) ([6]; Postemergence, 31 g ai/ha) | Foxtail, Giant plant response rating (0 to 100 scale) [6, 18] | Ragweed plant response rating (0 to 100 scale) ([7]; Postemergence, 31 g ai/ha) | Ragweed plant response rating (0 to 100 scale) [7, 18] | Wheat plant response rating (0 to 100 scale) ([8]; Postemergence, 31 g ai/ha) | Wheat plant response rating (0 to 100 scale) [8, 18] | Pigweed plant response rating (0 to 100 scale) ([9]; Postemergence, 31 g ai/ha) | Pigweed plant response rating (0 to 100 scale) [9, 18] | other results
1 | CCON=C(c1cc(Cl)cc(Br)c1)c1c(O)c(C)nn(C)c1=O [Compound 180] | 0 | 20 | 30 | 60 | 80 | 90 | 90 | 100 | 0 | 30 | 70 | 100 | 70 | 90 | 100 | 100 | 30 | 50 | 10 | 70 | Barnyardgrass plant response rating (0 to 100 scale) ([10]; 125 g ai/ha): 80; Barnyardgrass plant response rating (0 to 100 scale) [10, 19]: 0; Kochia plant response rating (0 to 100 scale) (kochia (Bassia scoparia) [11]; 125 g ai/ha): 100; Kochia plant response rating (0 to 100 scale) (kochia (Bassia scoparia) [11]; [19]): 0; Ryegrass, Italian plant response rating (0 to 100 scale) ([12]; 125 g ai/ha): 100; Ryegrass, Italian plant response rating (0 to 100 scale) [12, 19]: 40; Foxtail, Giant plant response rating (0 to 100 scale) ([13]; 125 g ai/ha): 100; Foxtail, Giant plant response rating (0 to 100 scale) [13, 19]: 70; Pigweed plant response rating (0 to 100 scale) ([14]; 125 g ai/ha): 80; Pigweed plant response rating (0 to 100 scale) [14, 19]: 50; Plant response rating, Barnyardgrass (Flood) [15]: 40; Plant response rating, Rice (Flood) (rice (Oryza sativa)): 0; Plant response rating, Sedge, Umbrella (Flood) [16]: 65; Plant response rating, Ducksalad (Flood) [17]: 60
2 | Cc1nn(C)c(=O)c(/C(=N/OC(C)C)c2cc(Cl)cc(Cl)c2Cl)c1O [Compound 185] | 0 | 20 | 10 | 60 | 10 | 50 | 70 | 100 | 10 | 30 | 70 | 100 | 60 | 90 | 90 | 100 | 50 | 80 | 40 | 100 | Barnyardgrass plant response rating (0 to 100 scale) ([10]; 125 g ai/ha): 70; Barnyardgrass plant response rating (0 to 100 scale) [10, 19]: 0; Kochia plant response rating (0 to 100 scale) (kochia (Bassia scoparia) [11]; 125 g ai/ha): 50; Kochia plant response rating (0 to 100 scale) (kochia (Bassia scoparia) [11]; [19]): 0; Ryegrass, Italian plant response rating (0 to 100 scale) ([12]; 125 g ai/ha): 100; Ryegrass, Italian plant response rating (0 to 100 scale) [12, 19]: 10; Foxtail, Giant plant response rating (0 to 100 scale) ([13]; 125 g ai/ha): 100; Foxtail, Giant plant response rating (0 to 100 scale) [13, 19]: 90; Pigweed plant response rating (0 to 100 scale) ([14]; 125 g ai/ha): 100; Pigweed plant response rating (0 to 100 scale) [14, 19]: 70; Plant response rating, Barnyardgrass (Flood) [15]: 45; Plant response rating, Rice (Flood) (rice (Oryza sativa)): 60; Plant response rating, Sedge, Umbrella (Flood) [16]: 95; Plant response rating, Ducksalad (Flood) [17]: 85
3 | CCO/N=C(\c1c(O)c(Cl)nn(C)c1=O)c1cc(Br)cc2ccccc12 [Compound 235] | 0 | 10 | 60 | 90 | 50 | 60 | 90 | 90 | 20 | 20 | 0 | 0 | 40 | 80 | 100 | 100 | 0 | 0 | 50 | 90 | Barnyardgrass plant response rating (0 to 100 scale) [10, 19]: 90; Barnyardgrass plant response rating (0 to 100 scale) [10, 20]: 100; Kochia plant response rating (0 to 100 scale) (kochia (Bassia scoparia) [11]; [19]): 0; Kochia plant response rating (0 to 100 scale) (kochia (Bassia scoparia) [11]; [20]): 70; Ryegrass, Italian plant response rating (0 to 100 scale) [12, 19]: 0; Ryegrass, Italian plant response rating (0 to 100 scale) [12, 20]: 0; Foxtail, Giant plant response rating (0 to 100 scale) [13, 19]: 30; Foxtail, Giant plant response rating (0 to 100 scale) [13, 20]: 90; Pigweed plant response rating (0 to 100 scale) [14, 19]: 100; Pigweed plant response rating (0 to 100 scale) [14, 20]: 90; Plant response rating, Barnyardgrass (Flood) [15]: 60; Plant response rating, Rice (Flood) (rice (Oryza sativa)): 0; Plant response rating, Sedge, Umbrella (Flood) [16]: 90; Plant response rating, Ducksalad (Flood) [17]: 75
4 | C#CCO/N=C(\c1cc(Cl)cc(Cl)c1Cl)c1c(O)c(C)nn(C)c1=O [Compound 187] | 0 | 20 | 30 | 70 | 40 | 70 | 80 | 100 | 0 | 0 | 70 | 100 | 50 | 80 | 90 | 100 | 0 | 50 | 20 | 70 | Barnyardgrass plant response rating (0 to 100 scale) ([10]; 125 g ai/ha): 100; Barnyardgrass plant response rating (0 to 100 scale) [10, 19]: 70; Kochia plant response rating (0 to 100 scale) (kochia (Bassia scoparia) [11]; 125 g ai/ha): 90; Kochia plant response rating (0 to 100 scale) (kochia (Bassia scoparia) [11]; [19]): 0; Ryegrass, Italian plant response rating (0 to 100 scale) ([12]; 125 g ai/ha): 100; Ryegrass, Italian plant response rating (0 to 100 scale) [12, 19]: 40; Foxtail, Giant plant response rating (0 to 100 scale) ([13]; 125 g ai/ha): 100; Foxtail, Giant plant response rating (0 to 100 scale) [13, 19]: 80; Pigweed plant response rating (0 to 100 scale) ([14]; 125 g ai/ha): 90; Pigweed plant response rating (0 to 100 scale) [14, 19]: 60; Plant response rating, Barnyardgrass (Flood) [15]: 35; Plant response rating, Rice (Flood) (rice (Oryza sativa)): 15; Plant response rating, Sedge, Umbrella (Flood) [16]: 60; Plant response rating, Ducksalad (Flood) [17]: 75
